Here are results for seven compounds from US11649236B2, “Polycyclic carbamoylpyridone derivative” (Shionogi & Co., Ltd., priority 2018, dated 2023).

Data set [1] concerns HIV. As to the kind of experiment: Anti-HIV activity (MT-4 cells, MTT). The format is cell-based. To be noted: Human immunodeficiency virus 1, MT4, 96 h, cultured 4 days. In a few lines: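 MT-4 cells (2.5×10^5 cells/mL) mixed with serial dilutions of test sample and HIV, cultured 4 days in CO2 incubator. MTT added for 1 h, cells lysed, absorbance read at 560 nm and 690 nm.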

Data set [2] concerns HIV mutant strain 1 (E138K/G140S/Q148H/N155H). As to the kind of experiment: Resistance evaluation test (HeLa-CD4 reporter), mutant strain 1. The format is cell-based. To be noted: FC=EC50 of mutant strain/EC50 of wild strain, HeLa-CD4 cells. On the procedure: (§1) Serial dilutions of a test sample were prepared in a96-well microplate (50 μL/well). 2.5×10^5 cells/mL of a HeLa-CD4 cell suspension was dispensed at 100 μL/well to the plate containing the test sample. Then, an HIV virus solution (wild strain and mutant strain) was dispensed at 50 μL/well. The plate was mixed with a plate mixer and cultured for 3 days in a CO2 incubator. The culture supernatant in each well was removed by suction. A cell lysis buffer in a reporter assay kit was dispensed at 100 μL/well, and the plate was frozen in a freezer (−80° C.). The plate frozen in a freezer was thawed at room temperature, then mixed with a plate mixer, and centrifuged at 1,200 rpm for 5 minutes. The supernatant of each well was dispensed at 20 μL/well to a 96-well microplate (BLACK). A chemiluminescent reagent in the reporter assay kit was dispensed at 100 μL/well and reacted at room temperature for approximately 1 hour. Then, luminescence intensity was measured using MicroBeta TRILUX. […] FC=EC50 of mutant strain/EC50 of wild strain (Results) FC for the mutant strain 1 (E138K/G140S/Q148H/N155H) and FC for the mutant strain 2 (E92Q/E138T/G140S/Q148H) are shown in the table.

Data set [3] has as its system HIV mutant strain 2 (E92Q/E138T/G140S/Q148H). As to the kind of experiment: Resistance evaluation test (HeLa-CD4 reporter), mutant strain 2. The format is cell-based. To be noted: FC=EC50 of mutant strain/EC50 of wild strain, HeLa-CD4 cells. As for the experimental part: as §1
In data set [4] the test system is HIV mutant strain 3 (E92Q/E138K/G140S/Q148H). As to the kind of experiment: Resistance evaluation test (HeLa-CD4 reporter), mutant strain 3. The class given is cell-based. To be noted: FC=EC50 of mutant strain/EC50 of wild strain, HeLa-CD4 cells. As for the experimental part: as §1
In data set [5] the test system is HIV mutant strain (T97A/E138T/G140S/Q148H). Nature of the data set: Resistance evaluation test (HeLa-CD4 reporter), mutant strain T97A/E138T/G140S/Q148H. The format is cell-based. To be noted: FC=EC50 of mutant strain/EC50 of wild strain; HeLa-CD4 cells.
Data set [6] can be described thus: Clearance evaluation test. To be noted: rat, plasma, 1 umol/kg, rats, intravenous 1 μmol/kg; for half-life: read-out: elimination half-life (t½) (converted); for clearance: read-out: total body clearance (CLtot). The class given is in vivo. An excerpt: Experimental Material and Method (1) Animals used: rats were used. (2) Rearing conditions: the rats were allowed to freely take solid feed and sterilized tap water. (3) Dose and grouping setting: a predetermined dose was intravenously administered. Groups were set as follows: Intravenous administration: 1 μmol/kg (n=2) (4) Preparation of dosing solution: the test sample was solubilized using a solvent of dimethyl sulfoxide/propylene glycol=1/1 and administered. (5) Administration method: the test sample was administered to the tail vein through a syringe with an injection needle. (6) Evaluation item: blood was collected over time, and the concentration of the compound of the present invention in plasma was measured using LC/MS/MS. (7) Statistical analysis: total body clearance (CLtot) and elimination half-life (t½) were calculated as to change in the concentration of the compound of the present invention in plasma by the moment analysis method.

The next data set is described as follows: Metabolic stability test. The class given is in vitro ADME, human. To be noted: compound 0.5 μmol/L, human liver microsomes 0.5 mg protein/mL, NADPH, 37° C., 30 minutes; amount at 0 minutes defined as 100%. Further details: key: % remaining vs amount at 0 min (=100%). As for the experimental part: Commercially available pooled human liver microsomes were reacted with the compound of the present invention for a certain time. A residual rate was calculated by the comparison between the reacted sample and an unreacted sample to evaluate the degree at which the compound of the present invention is metabolized in the liver. A reaction was performed (oxidative reaction) at 37° C. for 0 minutes or 30 minutes in the presence of 1 mmol/L NADPH in 0.2 mL of a buffer (50 mmol/L Tris-HCl pH 7.4, 150 mmol/L potassium chloride, 10 mmol/L magnesium chloride) containing 0.5 mg protein/mL of human liver microsomes. After the reaction, 50 μL of the reaction solution was added to 100 μL of a solution of methanol/acetonitrile=1/1 (v/v) and mixed, and the mixture was centrifuged at 3000 rpm for 15 minutes. The compound of the present invention in the centrifugation supernatant was quantified by LC/MS/MS or solid-phase extraction (SPE)/MS. The amount of the compound of the present invention remaining after the reaction was calculated with the amount of the compound at 0 minutes of the reaction defined as 100%.
(Liver microsomes are vesicles of endoplasmic reticulum, rich in cytochrome P450 enzymes.)

Data set [7] has as its target Voltage gated sodium channel (Nav 1.5 channel) (Homo sapiens, UniProt Q14524). To be noted: pH 7.4.
Text: For the purpose of assessing risk of arrhythmogenesis of the compound of the present invention, effects of the compound of the present invention on Na^+ current (INa), which plays an important role in the depolarization process of myocardium, was studied using HEK cells expressing Voltage gated sodium channel (Nav 1.5 channel) encoded by SCN5A gene. A cell is retained at a membrane potential of −100 mV by the whole cell patch clamp method using an automated patch clamp system (QPatch; Sophion Bioscience A/S), then INa induced by depolarization stimulation at −10 mV for 20 milliseconds, was recorded. […] From the obtained INa, an absolute value of the maximum peak current was measured based on the current value at the resting membrane potential using analysis software (QPatch Assay software; Sophion Bioscience A/S). The maximum peak current at the time of the application of the compound of the present invention with respect to the maximum peak current at the time of the application of the vehicle was further calculated to evaluate the influence of the compound of the present invention on INa.
For data set [8], the system named is HIV. As to the kind of experiment: Anti-HIV activity evaluation test using PBMC of healthy humans. The format is cell-based. To be noted: Human immunodeficiency virus 1, 96 h, read-out: 90% HIV inhibitory concentration (EC90); PHA-stimulated PBMC, 4 days, reverse transcriptase activity. On the procedure:
Serial dilutions of a test sample were prepared in a 96-well microplate (50 μL/well). 1.0×10^5/well of PBMC stimulated with Phytohemagglutinin (PHA) and an HIV viral solution were mixed in the required number of wells and the mixture was reacted at 37° C. for 1 hour. After the reaction, the cell suspension was centrifuged and the supernatant was discarded, and the infected cells were dispersed in the culture medium in the required number of wells at 150 μL/well. The obtained medium was dispensed at 150 μL/well to a 96-well microplate containing the test sample. The plate was mixed with a plate mixer and cultured for 4 days in a CO2 incubator. The reverse transcriptase activity in the culture medium was measured.

For data set [9], the system named is HIV. As to the kind of experiment: Anti-HIV activity evaluation test in the presence of human serum protein (MT-4 cells). To be noted: PS=4×(EC50 in 25% human serum protein/EC50 in absence), 100% extrapolation value. The format is cell-based. On the procedure: Serial dilutions of a test sample were prepared in a 96-well microplate (50 μL/well). A human serum protein solution (50% human serum protein concentration) was dispensed at 100 μL/well into a 96-well microplate containing the test sample, and allowed to be left still at room temperature for 1 hour. For the plate of serum absence, the culture medium was dispensed at 100 μL/well. 3.0×10^5/well of MT-4 cells and 3 μL/well of an HIV viral solution were mixed in an amount of the required number of wells, and the mixture was reacted at 37° C. for 1 hour. After the reaction, the cell suspension was centrifuged and the supernatant was discarded, and the infected cells were dispersed in the culture medium in an amount of the required number of wells at 50 μL/well, and dispensed at 50 μL/well to a 96-well microplate containing the test sample and human serum protein (final concentration of the human serum protein: 25%). The plate was mixed with a plate mixer and cultured for 4 days in a CO2 incubator. An MTT (3-(4,5-dimethylthiazol-2-yl)-2,5-diphenyltetrazolium bromide) solution was dispensed at 30 μL/well. The plate was reacted for 1 hour in a CO2 incubator. 150 μL of the supernatant was removed from each well so as not to take up the cells. […] The absorbance of the mixed plate was measured at two wavelengths of 560 nm and 690 nm using a microplate reader. […]

Voltage gated sodium channel (Nav 1.5 channel), sequence (Q14524 whole entry): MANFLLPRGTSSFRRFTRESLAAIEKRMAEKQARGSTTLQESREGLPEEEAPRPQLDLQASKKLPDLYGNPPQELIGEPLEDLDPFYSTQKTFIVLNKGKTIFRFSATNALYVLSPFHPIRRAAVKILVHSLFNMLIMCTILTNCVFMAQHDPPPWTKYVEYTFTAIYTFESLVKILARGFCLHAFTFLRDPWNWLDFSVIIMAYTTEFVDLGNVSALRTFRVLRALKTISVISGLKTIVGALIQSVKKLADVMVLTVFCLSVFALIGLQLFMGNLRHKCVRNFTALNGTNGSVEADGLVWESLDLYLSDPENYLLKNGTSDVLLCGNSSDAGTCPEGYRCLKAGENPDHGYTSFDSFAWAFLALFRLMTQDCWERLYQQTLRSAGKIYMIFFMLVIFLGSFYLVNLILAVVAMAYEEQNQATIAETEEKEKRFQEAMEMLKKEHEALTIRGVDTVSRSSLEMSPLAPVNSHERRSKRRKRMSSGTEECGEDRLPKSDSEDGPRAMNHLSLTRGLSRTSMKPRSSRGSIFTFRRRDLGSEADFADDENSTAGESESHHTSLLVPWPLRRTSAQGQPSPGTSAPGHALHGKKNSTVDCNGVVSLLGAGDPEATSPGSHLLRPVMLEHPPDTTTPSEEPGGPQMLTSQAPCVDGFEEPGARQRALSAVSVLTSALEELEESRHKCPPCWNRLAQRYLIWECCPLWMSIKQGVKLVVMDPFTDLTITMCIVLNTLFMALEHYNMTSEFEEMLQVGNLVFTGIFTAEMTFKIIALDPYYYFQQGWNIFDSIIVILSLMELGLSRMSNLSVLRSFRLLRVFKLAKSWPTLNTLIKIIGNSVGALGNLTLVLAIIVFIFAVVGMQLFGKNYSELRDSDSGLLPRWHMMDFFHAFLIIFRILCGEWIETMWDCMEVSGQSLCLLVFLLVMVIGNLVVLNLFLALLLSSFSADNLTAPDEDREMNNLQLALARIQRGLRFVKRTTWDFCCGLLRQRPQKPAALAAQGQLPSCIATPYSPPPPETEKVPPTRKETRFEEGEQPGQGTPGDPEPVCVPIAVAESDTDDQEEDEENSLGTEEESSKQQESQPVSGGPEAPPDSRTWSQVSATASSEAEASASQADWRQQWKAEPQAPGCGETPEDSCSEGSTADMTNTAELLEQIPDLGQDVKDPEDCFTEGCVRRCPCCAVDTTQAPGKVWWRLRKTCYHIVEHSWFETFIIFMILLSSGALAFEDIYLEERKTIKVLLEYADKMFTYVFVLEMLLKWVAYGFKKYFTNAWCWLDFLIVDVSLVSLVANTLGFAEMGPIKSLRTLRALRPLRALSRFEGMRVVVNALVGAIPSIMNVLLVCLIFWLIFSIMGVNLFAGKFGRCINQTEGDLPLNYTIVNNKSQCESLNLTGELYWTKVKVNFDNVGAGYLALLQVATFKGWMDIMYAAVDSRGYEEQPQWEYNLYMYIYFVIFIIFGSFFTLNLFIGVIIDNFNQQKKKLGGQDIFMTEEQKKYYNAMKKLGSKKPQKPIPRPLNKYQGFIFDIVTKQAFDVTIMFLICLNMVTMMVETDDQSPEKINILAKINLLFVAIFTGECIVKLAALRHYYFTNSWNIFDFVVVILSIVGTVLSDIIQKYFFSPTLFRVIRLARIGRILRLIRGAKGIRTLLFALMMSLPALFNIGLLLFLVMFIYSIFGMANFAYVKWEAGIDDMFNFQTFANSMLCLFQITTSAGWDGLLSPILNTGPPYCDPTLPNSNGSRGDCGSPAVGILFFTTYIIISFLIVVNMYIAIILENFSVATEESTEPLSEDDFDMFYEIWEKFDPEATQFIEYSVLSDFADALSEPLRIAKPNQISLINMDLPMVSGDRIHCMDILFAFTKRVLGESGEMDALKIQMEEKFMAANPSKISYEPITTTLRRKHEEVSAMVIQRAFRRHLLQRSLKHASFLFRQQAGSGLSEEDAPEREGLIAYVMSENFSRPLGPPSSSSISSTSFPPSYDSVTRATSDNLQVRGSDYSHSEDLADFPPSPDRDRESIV

By EC50 is commonly meant the concentration that produces a half-maximal response. What is called half-life is the time needed for the level to fall by half in the phase considered. As usually defined, the clearance is the volume of plasma or blood freed of the substance per unit of time. `CN1C(=O)c2c(O)c(=O)c(C(=O)NCc3ccc(F)cc3F)cn2N2CCCC[C@@H]12` [Compound I-015]: the midpoint of the response with HIV [1], the EC50, lay at 3.6 nM. In addition, the “FC mutant strain 1” value in data set [2] stood at 51. For the same compound, in [3], the “FC mutant strain 2” value came to 18. The “FC for the mutant strain 3” value in [4] amounted to 7.7. Moreover, in [5], the “FC for the mutant strain (T97A/E138T/G140S/Q148H)” value is 10. In data set [6], the half-life is 12.3 h and the clearance worked out at 0.111 mL/min/kg. The residual rate in the data set “Metabolic stability test” is 103. In data set [7], the “maximum peak current (INa) with compound with respect to vehicle” value worked out at 92.1%.

For `CN1C(=O)c2c(O)c(=O)c(C(=O)NCc3cccc(Cl)c3F)cn2N2C[C@@H]3CC[C@@H](C3)[C@@H]12` [II-028], the EC50 in the data set on HIV [1] was 1.4 nM. Also, the “FC mutant strain 1” value in [2] was found to be 9.9. In addition, in data set [3], the “FC mutant strain 2” value came to 15. Moreover, in data set [6], the half-life is 26.7 h and the clearance worked out at 0.102 mL/min/kg. In the data set “Metabolic stability test”, this compound displayed a residual rate of 74.2.

Compound `COC[C@@H]1CC[C@H]2N(C)C(=O)c3c(O)c(=O)c(C(=O)NCc4cccc(Cl)c4F)cn3N12` [II-031] registered an EC50 in the data set on HIV [1] of 0.34 nM. Also, the “FC mutant strain 1” value in data set [2] is 10. The “FC mutant strain 2” value in [3] came out at 6.9. The same compound displayed a residual rate in the data set “Metabolic stability test” of 86. The EC90 with HIV [8] amounted to 0.73 nM. Also, the “Potency shift (PS)” value in the data set with HIV [9] was 364. In addition, the “maximum peak current (INa) with compound with respect to vehicle” value in [7] was found to be 79%.

Take `CCN1C(=O)c2c(O)c(=O)c(C(=O)NCc3ccc(F)cc3F)cn2N2C[C@@H](C)C[C@@H]12` [II-051]: the midpoint of the response with HIV [1], the EC50, lay at 0.74 nM. Besides, the “FC mutant strain 1” value in data set [2] came out at 19. Also, the “FC mutant strain 2” value in data set [3] was 21. Besides, the residual rate in the data set “Metabolic stability test” turned out to be 96. The EC90 in the data set on HIV [8] was 3.3 nM. Further, the “Potency shift (PS)” value in the data set on HIV [9] is 236.

`CN1C(=O)c2c(O)c(=O)c(C(=O)NCc3cccc(Cl)c3F)cn2N2C[C@@H]3CCC[C@@H](C3)[C@@H]12` [II-153] had a 50% effective concentration (EC50) in the data set on HIV [1] of 0.74 nM. The “FC mutant strain 1” value in [2] is on record as 18. The “FC mutant strain 2” value in data set [3] was found to be 10. In “Metabolic stability test”, this compound had a residual rate of 75.4.

In turn, `CCN1C(=O)c2c(O)c(=O)c(C(=O)NCc3ccc(F)cc3F)cn2N2C[C@@H]3CCC[C@@H](O3)[C@@H]12` [II-156] came in with an EC50 in the data set with HIV [1] of 0.33 nM. Also, the “FC mutant strain 1” value in data set [2] was found to be 26. Further, in [3], the “FC mutant strain 2” value was determined as 16. In the data set “Metabolic stability test”, this compound showed a residual rate of 98.6.

With `CCN1C(=O)c2c(O)c(=O)c(C(=O)NCc3ccc(F)nc3F)cn2N2C[C@@H]3CC[C@@H](O3)[C@@H]12` [II-157], the midpoint of the response in the data set with HIV [1], the EC50, lay at 2.2 nM. For the same compound, the “FC mutant strain 1” value in [2] was found to be 36. For the same compound, in data set [3], the “FC mutant strain 2” value is 25. This compound came in with a residual rate in the data set “Metabolic stability test” of 105.
